The source of these data is ChEMBL document CHEMBL4257572, “Semisynthesis of ent-norstrobane diterpenoids as potential inhibitor for factor Xa” (Bioorg Med Chem Lett, 2018).

In general, IC50 refers to the concentration that gives 50% inhibition.

In the assay the target is Coagulation factor X (Homo sapiens, UniProt P00742). Put plainly: Inhibition of human coagulation factor 10a using Z-D-Arg-Gly-Arg-pNA.2HCl as substrate preincubated for 15 mins followed by substrate addition by UV absorption assay.
Coagulation factor X, sequence (P00742 41-179 limits assumed): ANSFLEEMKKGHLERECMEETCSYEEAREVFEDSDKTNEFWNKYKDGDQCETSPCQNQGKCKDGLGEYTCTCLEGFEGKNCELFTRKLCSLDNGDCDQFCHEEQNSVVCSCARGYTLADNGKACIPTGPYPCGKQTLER
Coagulation factor X, sequence (P00742 235-488 limits assumed): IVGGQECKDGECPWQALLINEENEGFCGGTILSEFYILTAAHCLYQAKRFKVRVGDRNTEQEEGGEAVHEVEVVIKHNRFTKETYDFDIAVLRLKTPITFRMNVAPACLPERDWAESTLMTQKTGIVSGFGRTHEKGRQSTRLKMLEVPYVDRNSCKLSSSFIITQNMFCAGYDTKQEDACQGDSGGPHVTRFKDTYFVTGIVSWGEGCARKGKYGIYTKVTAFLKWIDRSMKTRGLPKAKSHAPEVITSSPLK
As to `CC1(C)OCC([C@]2(C)C=C3CC[C@@H]4[C@](C)(CO)C[C@@H](O)C[C@@]4(C)[C@@H]3CC2)O1` (stereo not given in full), the IC50 came out at 7.16 µM. As for `CC(=O)OC[C@]1(C)C[C@@H](OC(C)=O)C[C@@]2(C)[C@@H]3CC[C@](C)(O)CC=C3CC[C@H]12`, it took 0.081 µM to reach half-maximal inhibition (IC50). Compared with the last compound, the IC50 is about 88-fold lower. With `CC(=O)O[C@@H]1CC[C@@]2(C)[C@@H]3CC[C@](C)([C@@H](O)CO)C=C3CC[C@@H]2C1(C)C` the figure was 3.03 µM; with `CC(=O)O[C@@H]1CC[C@@]2(C)[C@@H]3CC[C@](C)(O)CC=C3CC[C@@H]2C1(C)C`, 5.73 µM; with `CC(=O)OC[C@]1(C)C[C@@H](OC(C)=O)C[C@@]2(C)[C@@H]3CC[C@](C)(CO)C=C3CC[C@H]12`, 1.07 µM. In turn, `CC(=O)OC[C@]1(C)C[C@@H](OC(C)=O)C[C@@]2(C)[C@@H]3CC[C@](C)([C@@H](O)CO)C=C3CC[C@H]12` showed a 50% inhibitory concentration (IC50) of 5.62 µM. In the case of `CC1(C)OCC([C@]2(C)C=C3CC[C@@H]4C(C)(C)[C@H](O)CC[C@@]4(C)[C@@H]3CC2)O1` (stereo not given in full), the IC50 is 1.02 µM. This IC50 is about 5.5-fold lower than that of the compound before. As to `CC(=O)O[C@@H]1CC[C@@]2(C)[C@@H]3CC[C@](C)(CO)C=C3CC[C@@H]2C1(C)C`, half-maximal inhibition (IC50) was put at 8.45 µM. With `CC1(C)[C@H](O)CC[C@@]2(C)[C@@H]3CC[C@](C)([C@@H](O)CO)C=C3CC[C@H]12` [DARUTIGENOL] the figure was 11.4 µM. `C[C@@]1(CO)C[C@@H](O)C[C@@]2(C)[C@@H]3CC[C@](C)([C@@H](O)CO)C=C3CC[C@H]12` [KIRENOL] had a half-inhibitory concentration (IC50) of 2.57 µM. This IC50 is about 4.4-fold lower than that of the compound before.
